The target in one test is T1, 20 S proteasome (Homo sapiens, UniProt P25787+P25789).
T1 construct: purified from erythrocytes; purchased Enzo Life Sciences, Inc. (Farmingdale, N.Y.); host or cells: human erythrocytes
In words: PGPH peptidase activity of tRpt5-activated 20 S core. In kind it is biochemical. The conditions noted are these: core activated with tRpt5. How it is done: Human housekeeping 20 S and 26 S and complexes purified from erythrocytes were purchased from Enzo Life Sciences, Inc. (Farmingdale, N.Y.). The 1 mg/ml stock 20 S proteasome was diluted to 0.2 mg/ml working solution in 50 mM Tris/HCl, pH 8 containing 20% glycerol (dilution buffer). For the 26 S proteasome stock, the dilution buffer was supplemented with 2 mM ATP, 1 mM MgCl2, and 1 mM DTT (dithiothreitol). […] of fluorescence emitted by 7-amino-4-methylcoumarin ([…]; Bachem Bioscience Inc., Philadelphia, Pa.), used at concentration of 100 μM. Free AMC (Sigma-Aldrich, St. Louis, Mo.) was used as the standard. The Rpt5 C-terminal peptide was synthesized (standard solid-phase peptide chemistry) and purified to at least 98% purity by GenScript (Piscataway, N.J.). The Rpt5 peptide and the peptide substrate were dissolved in dimethylsulfoxide (DMSO) and such stock solutions were stored at −20° C. […]
The reaction was carried out in 96-well plates, in 100 μL of reaction mixture, for 1 hour at 37° C. […] The reaction rates were calculated from a linear segment of kinetic curves constructed from measurements in 1-minutes intervals (Fluoroskan Ascent plate reader; Thermo Fisher Scientific Inc., Waltham, Mass.). Reaction rates were calculated using a linear fit executed by Slope Analyzer and Enzyme Kinetics applications launched within Origin Pro 2017 (OriginLab). […]

For test [1], the target named is T2, latent core 20 S proteasome (Homo sapiens, UniProt P25787+P25789).
T2 construct: purified from erythrocytes; purchased Enzo Life Sciences, Inc. (Farmingdale, N.Y.); host or cells: human erythrocytes
Kind of test: PGPH peptidase activity of latent 20 S core. The class given is biochemical.

The target in another test is T3, mTOR (Homo sapiens, UniProt P42345+P62942).
T3 construct: endogenous in cells; host or cells: RPMI 8226 (ATCC)
In words: Western blot of S6 phosphorylation in RPMI 8226 cells. The class given is cell-based. The conditions noted are these: RPMI 8226, 24 hours; rapamycin 2 nM, compound 3 and B1 0.2 μM. How it is done: (§1) Human multiple myeloma RPMI 8226 cells were purchased from American Type Culture Collection (ATCC; Manassas, Va.) and cultured according to ATCC specifications. […] The content of live cells was determined by excluding the Trypan Blue-stained cells. The cells were counted with TC20 Automated Cell Counter (Bio-Rad Laboratories, Hercules, Calif.) and EC50 was calculated with Origin Pro 2017 (OriginLab Corporation, Northampton, Mass.). When indicated, the cells were harvested, washed twice in PBS, resuspended in dilution buffer and stored in −80° C. To prepare crude lysates the thawed preparations were vortexed with glass beads and centrifuged for 5 min 5,000×g (4° C.). The supernate was centrifuged for 20 min 14,000×g. The resulting supernate was used as “crude lysate.” SDS-PAGE was carried in 12% acrylamide, Tris-glycine gels from Invitrogen. Chameleon Duo (Li-Cor) and Rainbow RPN800E (GE Healthcare) molecular weight standards were separated on each gel alongside lysates. The proteins were transferred to nitrocellulose membrane in a semi-dry system. The membranes were probed with specific primary antibodies from Life Technologies (S6, PS6) and Li-Cor (COX IV), and then with secondary antibodies from Li-Cor. In each experiment visualization of S6, PS6 and COX IV was performed on the same membrane with Odyssey Infrared Imaging System (Li-Cor). […]

A further test addresses T4, FKBP12 (Homo sapiens, UniProt P62942).
T4 construct: endogenous in cells; host or cells: RPMI 8226 (ATCC)
Kind of test: Suppression of rapamycin inhibition of S6 phosphorylation by competing for FKBP12. In kind it is cell-based. The conditions noted are these: RPMI 8226, 24 hours; FK506 10 μM, compound 3 and B1 0.2 μM, with rapamycin. How it is done: as §1

Each structure is given as a SMILES string. “Also recorded” adds a separate entry of the source.

The text below walks through data of patent US11345659B2, “Pipecolic esters for inhibition of the proteasome” (THE BOARD OF REGENTS OF THE UNIVERSY OF TEXAS SYSTEM, priority 2018, dated 2022).

T4 sequence (P62942 whole entry): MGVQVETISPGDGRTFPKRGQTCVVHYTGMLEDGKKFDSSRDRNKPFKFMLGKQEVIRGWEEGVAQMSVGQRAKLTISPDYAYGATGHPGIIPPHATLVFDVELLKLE

As to `COc1cc(CCCOC(=O)[C@@H]2CCCCN2C(=O)OCc2ccccc2)cc(OC)c1OC` [Compound 3, 1-benzyl 2-(3-(3,4,5-trimethoxyphenyl)propyl) (S)-piperidine-1,2-dicarboxylate], the IC50 on 20 S proteasome is 2600 nM; in test [1], greater than 50 µM. Besides, the remaining activity at 10 µM in test [1] (10 μM compound, n=5, read-out: PGPH activity, % of control) turned out to be 99%. For the same compound, the remaining activity at 50 µM in test [1] (50 μM compound, n=3, read-out: PGPH activity, % of control) came out at 71%. For the same compound, on mTOR, the “activity of mTOR (phosphorylation of S6)” value is reported as “neither B1 nor compound 3 affected the activity of mTOR; also recorded: did not inhibit the S6 phosphorylation”. In addition, on FKBP12, the “suppression of rapamycin inhibition of S6 phosphorylation (FKBP12 binding)” value is reported as “did not mimic the actions of FK506”.
